# Values joined by “and” are separate entries in the source; they are usually repeats but may differ in a detail not shown here. Equal values may be shown once. Read-outs that look alike come from different tables or passages of the source.
# Legend:
# [1] = biological target: T1, rat GPR14 (U-II receptor) (Rattus norvegicus, UniProt P49684); experiment: Rat UII Calcium Mobilization FLIPR Assay; format: cell-based; conditions: for inhibition at 10 µM / inhibition at 50 µM: CHO, 5 min, agonist-induced Ca2+ mobilization (FLIPR), CHO cells with rat UII receptor; for inhibition at 10 µM: 10 μM compound, read-out: % I @ 10; for inhibition at 50 µM: 50 μM compound, read-out: % I @ 50; for IC50: Inhibition of Acetyl-cyclic[Cys-Phe-Trp-Lys-(2-Nal)-Cys]-NH2 induced Ca2+ mobilization (FLIPR) in CHO cells transfected with rat UII receptor
# T1 construct: expressed in transfected cells
# T1 sequence (P49684 1-386): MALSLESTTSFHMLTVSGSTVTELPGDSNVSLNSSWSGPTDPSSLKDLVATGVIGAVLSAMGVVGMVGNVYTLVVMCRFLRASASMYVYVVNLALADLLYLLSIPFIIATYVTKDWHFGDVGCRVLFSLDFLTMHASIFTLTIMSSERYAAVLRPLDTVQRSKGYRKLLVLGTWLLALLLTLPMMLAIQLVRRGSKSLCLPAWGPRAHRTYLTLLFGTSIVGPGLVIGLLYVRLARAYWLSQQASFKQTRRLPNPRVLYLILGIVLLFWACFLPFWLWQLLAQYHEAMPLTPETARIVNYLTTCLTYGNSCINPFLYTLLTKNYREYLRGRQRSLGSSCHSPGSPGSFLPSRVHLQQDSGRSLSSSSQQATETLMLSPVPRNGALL
# Outline: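 CHO cells stably expressing rat U-II receptor, seeded 24 h before assay, were loaded with FLIPR calcium dye in HBSS/20 mM HEPES/0.1% BSA/2.5 mM probenecid, pH 7.4, for 1 h at 37° C. Calcium mobilization then read by FLIPR at 23° C.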
# [2] = biological target: T2, endogenous human UII receptor (Homo sapiens, UniProt Q9UKP6); experiment: Human Radioligand Binding Assay ((^125I)-U-II binding to human skeletal muscle myoblasts)
# T2 sequence (Q9UKP6 1-389): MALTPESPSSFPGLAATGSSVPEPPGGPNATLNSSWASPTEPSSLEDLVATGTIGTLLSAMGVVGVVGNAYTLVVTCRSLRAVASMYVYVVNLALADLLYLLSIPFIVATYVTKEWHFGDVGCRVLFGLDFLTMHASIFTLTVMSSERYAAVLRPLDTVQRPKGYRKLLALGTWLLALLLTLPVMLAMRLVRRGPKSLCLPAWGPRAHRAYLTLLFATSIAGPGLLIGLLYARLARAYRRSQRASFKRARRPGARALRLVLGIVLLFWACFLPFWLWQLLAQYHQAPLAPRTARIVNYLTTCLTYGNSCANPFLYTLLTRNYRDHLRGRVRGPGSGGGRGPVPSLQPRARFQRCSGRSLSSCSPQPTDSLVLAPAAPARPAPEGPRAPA
# [3] = Inhibition of human UII binding to human skeletal muscle myoblasts containing endogenous human UII receptor
SMILES,inhibition at 10 µM [1] [%],inhibition at 50 µM [1] [%],IC50 ([1]; read-out: IC50),Ki [2] [nM],"Ki [2, 3] [nM]",IC50 ([1]; IC50 (μM)) [µM]
"COc1ccc(CN2C(=O)c3cccc(N4CCN(Cc5cccc(F)c5)CC4)c3C2=O)cc1OC [Cpd 17, 2-(3,4-dimethoxy-benzyl)-4-[4-(3-fluoro-benzyl)-piperazin-1-yl]-isoindole-1,3-dione]",99,101,1.1 µM,3500,–,–
"CCOc1ccc(CN2C(=O)c3cccc(N4CCN([C@H](C)c5ccccc5)CC4)c3C2=O)cc1OC [Cpd 18, 2-(4-ethoxy-3-methoxy-benzyl)-4-[4-(1R)-(1-phenyl-ethyl)-piperazin-1-yl]-isoindole-1,3-dione]",98,101,1.4 µM,2900,–,–
"COc1ccc(CN2C(=O)c3cccc(C4=CCN(Cc5ccccc5)CC4)c3C2=O)cc1OC [Cpd 19, 4-(1-benzyl-1,2,3,6-tetrahydro-pyridin-4-yl)-2-(3,4-dimethoxy-benzyl)-isoindole-1,3-dione]",94,100,1.5 µM,5200,–,–
"COc1ccc(CN2C(=O)c3cccc(N4CCN(C(C)(C)c5ccccc5)CC4)c3C2=O)cc1OC [Cpd 28, 2-(3,4-dimethoxy-benzyl)-4-[4-(1-methyl-1-phenyl-ethyl)-piperazin-1-yl]-isoindole-1,3-dione]",75,101,4.2 µM,5500,–,–
"COc1ccc(C(CN(C)C)N2C(=O)c3cccc(N4CCN([C@H](C)c5ccccc5)CC4)c3C2=O)cc1OC (stereo partly drawn) [Cpd 63, 2-[1-(3,4-dimethoxy-phenyl)-2-dimethylamino-ethyl]-4-[4-(1R)-(1-phenyl-ethyl)-piperazin-1-yl]-isoindole-1,3-dione]",102,102,0.4 µM,2800,–,–
"COc1ccc(C(CN)N2C(=O)c3cccc(N4CCN([C@H](C)c5ccccc5)CC4)c3C2=O)cc1OC (stereo partly drawn) [Cpd 64, 2-[2-amino-1-(3,4-dimethoxy-phenyl)-ethyl]-4-[4-(1R)-(1-phenyl-ethyl)-piperazin-1-yl]-isoindole-1,3-dione]",101,98,0.3 µM,700,–,–
"COc1ccc(C(CCCNC(=O)OC(C)(C)C)N2C(=O)c3cccc(N4CCN([C@H](C)c5ccccc5)CC4)c3C2=O)cc1OC (stereo partly drawn) [Cpd 65, (4-(3,4-dimethoxy-phenyl)-4-{1,3-dioxo-4-[4-(1R)-(1-phenyl-ethyl)-piperazin-1-yl]-1,3-dihydro-isoindol-2-yl}-butyl)-carbamic acid tert-butyl ester]",103,102,0.2 µM,–,200,–
"COc1ccc(C(CCCN)N2C(=O)c3cccc(N4CCN([C@H](C)c5ccccc5)CC4)c3C2=O)cc1OC (stereo partly drawn) [Cpd 66, 2-[4-amino-1-(3,4-dimethoxy-phenyl)-butyl]-4-[4-(1R)-(1-phenyl-ethyl)-piperazin-1-yl]-isoindole-1,3-dione]",101,97,0.2 µM,–,3200,–
"COc1ccc(C(CCCNS(C)(=O)=O)N2C(=O)c3cccc(N4CCN([C@H](C)c5ccccc5)CC4)c3C2=O)cc1OC (stereo partly drawn) [Cpd 67, N-(4-(3,4-dimethoxy-phenyl)-4-{1,3-dioxo-4-[4-(1R)-(1-phenyl-ethyl)-piperazin-1-yl]-1,3-dihydro-isoindol-2-yl}-butyl)-methanesulfonamide]",101,99,0.1 µM,1400,–,0.11
"COc1ccc(C(CCCNS(=O)(=O)c2cccs2)N2C(=O)c3cccc(N4CCN([C@H](C)c5ccccc5)CC4)c3C2=O)cc1OC (stereo partly drawn) [Cpd 68, thiophene-2-sulfonic acid (4-(3,4-dimethoxy-phenyl)-4-{1,3-dioxo-4-[4-(1R)-(1-phenyl-ethyl)-piperazin-1-yl]-1,3-dihydro-isoindol-2-yl}-butyl)-amide]",98,99,0.1 µM and 0.08 µM,–,76,–

# Source: patent publication US8193191B2, “Urotensin II receptor antagonists” (Janssen Pharmaceutica N.V., priority 2006, dated 2012)
